Where “and” joins values, the source holds several entries; their conditions need not be identical. Identical values can stand only once. Like-named read-outs stand apart in the source and are kept apart here. Marks after values point to notes of the source that are not given here. One block for each compound: values may come before it.
Assays:
[1] = test system: APP/PS1 mouse model of AD; parameters: method as in Woodling et al., Brain 2016; conditions: three month treatment given one month before the appearance of deficits, ref Woodling et al., Brain 2016; cited from earlier work
APP23 mice = test system: APP23 mice; parameters: method as in PMID 16095884; conditions: 2-month pre-symptomatic treatment, 3-week WO; cited from earlier work
[2] = parameters: method as in PMID 30254377; conditions: 50 mg/kg dose of VX-765, carotid infusion, J20 mice; cited from earlier work
[3] = VX-765 and VRT-043198 pharmacokinetics (LC-MS/MS) in plasma, whole brain and CSF after a single IP dose of VX-765
Casp1 = test system: Casp1; parameters: method as in PMID 30254377; conditions: in vitro Casp1; cited from earlier work
[4] = cited from earlier work
APP/PS1 = test system: APP/PS1; parameters: method as in PMID 29191754; conditions: 1-month pre-treatment, 3-week WO; cited from earlier work
[5] = CSF, 0.50 h after single IP 50 mg/kg VX-765
[6] = CSF, 1 h after single IP 50 mg/kg VX-765
[7] = CSF, 3 h after single IP 50 mg/kg VX-765, some blood contamination during CSF collection
[8] = CSF, 8 h after single IP 50 mg/kg VX-765, some blood contamination during CSF collection
[9] = plasma, 0.25 h after single IP 50 mg/kg VX-765
[10] = plasma, 0.50 h after single IP 50 mg/kg VX-765
[11] = plasma, 1 h after single IP 50 mg/kg VX-765
[12] = plasma, 3 h after single IP 50 mg/kg VX-765
[13] = plasma, 6 h after single IP 50 mg/kg VX-765
[14] = plasma, 8 h after single IP 50 mg/kg VX-765
[15] = plasma, single IP 50 mg/kg VX-765
[16] = whole brain, 0.25 h after single IP 50 mg/kg VX-765
[17] = whole brain, 0.50 h after single IP 50 mg/kg VX-765
[18] = whole brain, 1 h after single IP 50 mg/kg VX-765, NQ = not quantifiable, LLOQ 0.025 μM VX-765, 0.049 μM VRT-043198
[19] = whole brain, single IP 50 mg/kg VX-765

Structure (SMILES): CC(C)Cc1ccc(C(C)C(=O)O)cc1 (stereo not shown) [ibuprofen]
cognitive impairment on NOR [1]: prevention of cognitive impairment

Structure (SMILES): COc1ccc2c3c1O[C@H]1C[C@@H](O)C=C[C@@]31CCN(C)C2 [galantamine]
Morris water maze acquisition and spatial memory (APP23 mice): improved acquisition and spatial memory in the Morris water maze

CSF concentration, Mouse 2 ([3]; CSF, 0.25 h after single IP 50 mg/kg VX-765): 3.11 µM
CSF concentration, Mean ([3]; CSF, 0.25 h after single IP 50 mg/kg VX-765, n = 2): 42.9 µM
CSF concentration, Mouse 1 ([3]; CSF, 0.25 h after single IP 50 mg/kg VX-765, some blood contamination during CSF collection): 82.6* μM
CSF concentration, Mouse 1 [3, 5]: 0.44 µM
CSF concentration, Mouse 2 [3, 5]: 7.00 µM
CSF concentration, Mean ([3]; CSF, 0.50 h after single IP 50 mg/kg VX-765, n = 2): 3.72 µM
CSF concentration, Mouse 1 [3, 6]: 0.43 µM
CSF concentration, Mouse 2 [3, 6]: 0.58 µM
CSF concentration, Mean ([3]; CSF, 1 h after single IP 50 mg/kg VX-765, n = 2): 0.50 µM
CSF concentration, Mean ([3]; CSF, 3 h after single IP 50 mg/kg VX-765, n = 2): 0.28 µM
CSF concentration, Mouse 1 [3, 7]: 0.42* μM
CSF concentration, Mouse 2 [3, 7]: 0.15* μM
CSF concentration, Mean ([3]; CSF, 6 h after single IP 50 mg/kg VX-765): 0.21 µM
CSF concentration, Mouse 2 ([3]; CSF, 6 h after single IP 50 mg/kg VX-765, some blood contamination during CSF collection): 0.21* μM
CSF concentration, Mean ([3]; CSF, 8 h after single IP 50 mg/kg VX-765, n = 2): 0.36 µM
CSF concentration, Mouse 1 [3, 8]: 0.13* μM
CSF concentration, Mouse 2 [3, 8]: 0.60* μM
MRTinf in CSF, Mean ([3]; CSF, single IP 50 mg/kg VX-765): 48.6 min
MRTinf in CSF, Mouse 1 ([3]; CSF, single IP 50 mg/kg VX-765): 48.6 min
Tmax in CSF, Mean ([3]; CSF, single IP 50 mg/kg VX-765): 22.8 min
Tmax in CSF, Mouse 1 ([3]; CSF, single IP 50 mg/kg VX-765): 15 min
Tmax in CSF, Mouse 2 ([3]; CSF, single IP 50 mg/kg VX-765): 30 min
CSF concentration relative to respective in vitro Casp1 IC50 ([3]; CSF, within 0.25 h post-injection, single IP 50 mg/kg VX-765): 4000 fold
brain concentration relative to respective in vitro Casp1 IC50 ([3]; brain, within 0.25 h post-injection, single IP 50 mg/kg VX-765): 170 fold
plasma concentration, Mouse 1 [3, 9]: 201.8 µM
plasma concentration, Mouse 2 [3, 9]: 180.4 µM
plasma concentration, Mean ([3]; plasma, 0.25 h after single IP 50 mg/kg VX-765, n = 2): 191.1 µM
plasma concentration, Mouse 1 [3, 10]: 338.1 µM
plasma concentration, Mouse 2 [3, 10]: 104.1 µM
plasma concentration, Mean ([3]; plasma, 0.50 h after single IP 50 mg/kg VX-765, n = 2): 221.1 µM
plasma concentration, Mouse 1 [3, 11]: 24.4 µM
plasma concentration, Mouse 2 [3, 11]: 51.0 µM
plasma concentration, Mean ([3]; plasma, 1 h after single IP 50 mg/kg VX-765, n = 2): 37.7 µM
plasma concentration, Mouse 1 [3, 12]: 1.16 µM
plasma concentration, Mouse 2 [3, 12]: 0.78 µM
plasma concentration, Mean ([3]; plasma, 3 h after single IP 50 mg/kg VX-765, n = 2): 0.97 µM
plasma concentration, Mouse 1 [3, 13]: 0.46 µM
plasma concentration, Mouse 2 [3, 13]: 0.30 µM
plasma concentration, Mean ([3]; plasma, 6 h after single IP 50 mg/kg VX-765, n = 2): 0.38 µM
plasma concentration, Mouse 1 [3, 14]: 0.35 µM
plasma concentration, Mouse 2 [3, 14]: 0.24 µM
plasma concentration, Mean ([3]; plasma, 8 h after single IP 50 mg/kg VX-765, n = 2): 0.30 µM
MRTinf in plasma, Mouse 1 [3, 15]: 40.2 min
MRTinf in plasma, Mouse 2 [3, 15]: 46.8 min
Tmax in plasma, Mouse 1 [3, 15]: 30 min
Tmax in plasma, Mouse 2 [3, 15]: 15 min
plasma concentration relative to respective in vitro Casp1 IC50 ([3]; plasma, within 0.25 h post-injection, single IP 50 mg/kg VX-765): 20,000 fold
Cmax ([3]; read-out: Cmax in CSF, Mean, CSF, single IP 50 mg/kg VX-765): 44.8 µM
Cmax ([3]; read-out: Cmax in CSF, Mouse 1, CSF, single IP 50 mg/kg VX-765): 82.6 µM
Cmax ([3]; read-out: Cmax in CSF, Mouse 2, CSF, single IP 50 mg/kg VX-765): 7 µM
Cmax ([3]; read-out: Cmax in brain, Mean, whole brain, single IP 50 mg/kg VX-765): 1.7 µM
Cmax ([3]; read-out: Cmax in brain, Mouse 1, whole brain, single IP 50 mg/kg VX-765): 2.54 µM
Cmax ([3]; read-out: Cmax in brain, Mouse 2, whole brain, single IP 50 mg/kg VX-765): 0.85 µM
Cmax ([3]; read-out: Cmax in plasma, Mean, plasma, single IP 50 mg/kg VX-765): 259 µM
Cmax ([3]; read-out: Cmax in plasma, Mouse 1, plasma, single IP 50 mg/kg VX-765): 338 µM
Cmax ([3]; read-out: Cmax in plasma, Mouse 2, plasma, single IP 50 mg/kg VX-765): 180 µM
brain concentration, Mouse 1 [3, 16]: 2.54 µM
brain concentration, Mouse 2 [3, 16]: 0.85 µM
brain concentration, Mean ([3]; whole brain, 0.25 h after single IP 50 mg/kg VX-765, n = 2): 1.70 µM
brain concentration, Mouse 1 [3, 17]: 0.59 µM
brain concentration, Mouse 2 [3, 17]: 0.65 µM
brain concentration, Mean ([3]; whole brain, 0.50 h after single IP 50 mg/kg VX-765, n = 2): 0.62 µM
brain concentration, Mean ([3]; whole brain, 1 h after single IP 50 mg/kg VX-765): 0.24 µM
brain concentration, Mouse 1 [3, 18]: 0.21 µM
brain concentration, Mouse 2 [3, 18]: 0.27 µM
brain concentration, Mean ([3]; whole brain, 3 h after single IP 50 mg/kg VX-765): 0.08 µM
brain concentration, Mouse 1 ([3]; whole brain, 3 h after single IP 50 mg/kg VX-765, NQ = not quantifiable, LLOQ 0.025 μM VX-765, 0.049 μM VRT-043198): 0.08 µM
Half-life (t1/2) in brain, Mouse 1 [3, 19]: 59.4 min
MRTinf in brain, Mean [3, 19]: 52.2 min
MRTinf in brain, Mouse 1 [3, 19]: 58.8 min
MRTinf in brain, Mouse 2 [3, 19]: 45.6 min
Tmax in brain, Mean [3, 19]: 15 min
Tmax in brain, Mouse 1 [3, 19]: 15 min
Tmax in brain, Mouse 2 [3, 19]: 15 min
Half-life (t1/2) in brain, Mean ([3]; whole brain, single IP 50 mg/kg VX-765, 50 mg/kg): 60 min and 59.4 min
Structure (SMILES): CC(C)(C)[C@H](NC(=O)c1ccc(N)c(Cl)c1)C(=O)N1CCC[C@H]1C(=O)N[C@H](C=O)CC(=O)O [VRT-043198]
concentration in the J20 brain [2]: 2 to 5 µM
IC50 (Casp1): 9.91 nM
in vitro half-life (t1/2) [4]: ~3 h

Structure (SMILES): CN1CCN(CCOc2cc(OC3CCOCC3)c3c(Nc4c(Cl)ccc5c4OCO5)ncnc3c2)CC1 [saracatinib]
NOR performance (APP/PS1): continued improved performance in NOR

Structure (SMILES): CC12CC3CC(C)(C1)CC(N)(C3)C2 [memantine]
Morris water maze acquisition and spatial memory (APP23 mice): improved acquisition and spatial memory in the Morris water maze
